One compound from patent US12528803B2, “Inhibitors of αvβ6 integrin” (Morphic Therapeutic, Inc., priority 2018, dated 2026) can be followed below.

The nature of data set [1]: MDCK in vitro permeability assay (wild type MDCK cells, no inhibitor). To be noted: dog, no Pgp inhibitor, apical to basolateral (A→B). The format is in vitro ADME, Canine. The method, then: (§1) Compounds were tested for permeability in an MDCK permeability assay. This assay measures the ability of compounds to cross a layer of Madin-Darby Canine Kidney (MDCK) cells from the apical to basolateral side (A→B). This measurement is predictive of the ability of compounds to be absorbed in the gut following oral dosing, an essential characteristic of an orally administered small molecule integrin inhibitor drug.
(§2) The assay is run in two formats. One uses wild type MDCK cells with no inhibitor. This method works well in determining the passive permeability of compounds with low efflux by P-glyocprotein (Pgp), and was used to assess permeability of a Reference Compound having the chemical formula shown below.
(§3) Cell Culture and Maintenance: • Cell stock cultures (MDCK or MDCK MDR1) are maintained in MEM+10% FBS+1% NEAA, grown in 75 cm^2 tissue culture treated flasks and split (passed) 2 times weekly to maintain desired confluence. • For maintenance passage: trypsinized cells are routinely distributed into new flasks at a standard passage ratio of 1:20.
(§4) Seeding assay plates: MDCK assay plates are seeded with MDCK or MDCK MCR1 cells 3-4 days prior to running the assay. 24-well plates are seeded at a cell density of 0.88×10^5/well in a 400 μL apical chamber volume (2.2×10^5/mL) with a […] volume of growth medium to the 24-well basal chamber. […]

For data set [2], the system named is Madin-Darby Canine Kidney (MDCK) cells. Described as above. The format is in vitro ADME. As to conditions: no Pgp inhibitor, apical to basolateral (A→B). The method, then: as §1, §2, §3, §4

`O=C(O)CN1CCC(C(=O)N2CCC(c3ccc4c(n3)NCCC4)CC2)CC1` [Reference Compound] came in with a Papp A→B at 90 min, 5 μM in data set [1] of less than 0.23 ×10⁻⁶ cm/s. In data set [2], the “MDCK (A->B)” value is on record as “less than 0.23”.

By Papp A→B is commonly meant how fast a substance crosses the layer from the apical side. A higher Papp A→B goes with fast passage.
